Legend:
Assay type in all cases: cell-based
Set-up in all cases: unit not given here
[1] = system: human TLR8 mutant sequence comprising a deletion in the second leucine-rich repeat; experiment: TLR8 cellular NFκB-luc reporter assay, mutant TLR8 with deletion in the second leucine-rich repeat; conditions: lowest effective concentration, TLR8 mutant with deletion in second leucine-rich repeat
Procedure, shortened: (§1)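 HEK293 cells transiently co-transfected with CMV-driven mutant TLR7 or TLR8 plasmid plus NFκB-luc reporter, cultured 48 h at 37 °C, then exposed to compound for 6 h at 37 °C, 5% CO2. Luciferase luminescence measured; dose-response curves from quadruplicates.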

[2] = system: human TLR7 mutant sequence comprising a deletion in the second leucine-rich repeat; experiment: TLR7 cellular NFκB-luc reporter assay, mutant TLR7 with deletion in the second leucine-rich repeat; conditions: lowest effective concentration, TLR7 mutant with deletion in second leucine-rich repeat
Procedure, shortened: as §1

[3] = biological target: T1, human TLR8 (wild type sequence) (Homo sapiens, UniProt Q9NR97); experiment: TLR8 cellular NFκB-luc reporter assay, wild type TLR8; conditions: lowest effective concentration, wild type TLR8 (compounds 1-73)
T1 construct: expressed in transfected cells; host or cells: HEK293
T1 sequence (Q9NR97 27-1041): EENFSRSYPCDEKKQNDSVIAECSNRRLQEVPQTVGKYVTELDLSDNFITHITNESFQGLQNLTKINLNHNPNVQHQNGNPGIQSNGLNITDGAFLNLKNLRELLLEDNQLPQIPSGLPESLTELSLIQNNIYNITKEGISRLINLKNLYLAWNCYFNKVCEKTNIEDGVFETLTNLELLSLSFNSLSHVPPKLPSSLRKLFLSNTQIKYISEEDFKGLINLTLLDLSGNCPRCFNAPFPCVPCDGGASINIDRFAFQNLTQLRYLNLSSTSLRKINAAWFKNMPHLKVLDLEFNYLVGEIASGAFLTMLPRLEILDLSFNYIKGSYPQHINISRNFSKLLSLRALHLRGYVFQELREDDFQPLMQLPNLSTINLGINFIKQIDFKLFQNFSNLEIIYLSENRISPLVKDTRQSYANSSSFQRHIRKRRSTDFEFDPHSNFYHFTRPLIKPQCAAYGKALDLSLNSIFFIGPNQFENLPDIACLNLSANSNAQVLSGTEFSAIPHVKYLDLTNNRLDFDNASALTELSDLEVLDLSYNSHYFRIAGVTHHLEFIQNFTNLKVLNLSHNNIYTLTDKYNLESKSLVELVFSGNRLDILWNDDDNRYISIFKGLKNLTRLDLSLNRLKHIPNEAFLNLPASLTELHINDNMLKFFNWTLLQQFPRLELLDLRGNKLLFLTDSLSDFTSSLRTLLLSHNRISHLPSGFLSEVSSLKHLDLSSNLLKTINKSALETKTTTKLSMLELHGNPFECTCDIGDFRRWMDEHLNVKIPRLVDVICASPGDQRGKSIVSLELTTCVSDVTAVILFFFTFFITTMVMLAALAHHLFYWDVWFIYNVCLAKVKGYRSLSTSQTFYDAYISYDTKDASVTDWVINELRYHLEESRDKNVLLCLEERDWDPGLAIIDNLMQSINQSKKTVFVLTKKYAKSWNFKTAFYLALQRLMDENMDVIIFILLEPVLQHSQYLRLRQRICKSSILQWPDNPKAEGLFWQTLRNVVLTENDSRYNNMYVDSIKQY
Procedure, shortened: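 Transfected HEK293 cells expressing wild type or second leucine-rich repeat-deleted TLR7 or TLR8 together with an NFκB-luciferase reporter are treated with compound for 6 hours. Activation is measured by luciferase, and LEC is the lowest concentration exceeding the assay standard deviation at least two fold.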

Row | Structure (SMILES) | TLR8-dIRR2_LEC [1] | TLR7-dIRR2_LEC [2] | TLR8-wt_LEC [3]
1 | CCCCNc1nc(N)ncc1OC [Compound 4] | 1.10 | 1.17 | 2.56
2 | CCCCNc1nc(N)ncc1OCC(C)C [Compound 31] | 6.46 | 5.27 | 17.53
3 | CCCCCOc1cnc(N)nc1NCCCC [Compound 32] | 4.43 | 1.35 | 9.97
4 | CCCCCNc1nc(N)ncc1Oc1ccccc1OC [Compound 38] | 22.88 | 2.46 | >50
5 | CCCCCNc1nc(N)ncc1OC [Compound 56] | 1.47 | 0.84 | 5.55
6 | CCCCNc1nc(N)ncc1OCc1ccc(-c2ccccc2)cc1 [Compound 58] | 2.17 | 0.99 | 3.84
7 | CCCCNc1nc(N)ncc1OCC [Compound 60] | 0.65 | 1.38 | 2.08
8 | CCCCCNc1nc(N)ncc1OCC [Compound 63] | 1.94 | 1.79 | 6.35
9 | CCCCNc1nc(N)ncc1Oc1ccccc1OC [Compound 64] | 7.65 | 2.03 | 18.43
10 | CCCCCCNc1nc(N)ncc1OCC [Compound 70] | >24.59 | 4.96 | >24.59

Reference: patent US11541050B2, “Pyrimidine derivatives for the treatment of viral infections” (JANSSEN SCIENCES IRELAND UC, priority 2011, dated 2023)
